Measured values reported in publication PMC9697519, “New Theonellapeptolides from Indonesian Marine Sponge Theonella swinhoei as Anti-Austerity Agents” (Marine Drugs, 2022).
Like-named read-outs stand apart in the source and are kept apart here. Where a SMILES comes first, the peptide text is derived from it. Bridges are numbered along the chain shown (N, C = ends). [ ]: non-standard residue; d: D form. The star is where a group is joined. dNMeaIle = CC[C@H](C)[C@@H](NC)C(=O)O; d(aIle) = CC[C@H](C)[C@@H](N)C(=O)O; NMeI = CC[C@H](C)[C@H](NC)C(=O)O; dNMeL = CN[C@H](CC(C)C)C(=O)O; NMeV = CN[C@H](C(=O)O)C(C)C; Methoxyacetyl = COCC(=O)*; βAla = NCCC(=O)O

Key:
[1] = tested on: human pancreatic cancer cell line MIA PaCa-2; conditions: 24 h
Procedure: Data are presented as preferential cytotoxicity (PC50) values, which represent the concentration that kills 50% of cancer cells in a nutrient-deprived medium (NDM) without any toxicity in a nutrient-rich medium DMEM (Dulbecco’s Modified Eagle Medium).
Briefly, MIA PaCa-2, HepG2 and MCF-7 Cells (2 × 10^4 cells/well) were seeded in 96-well plates and incubated in fresh DMEM. The cells were washed with Dulbecco’s phosphate-buffered saline (PBS) before the medium was replaced with DMEM or NDM containing serial dilutions of the test samples. After 24 h of incubation, the cells were washed with PBS, and 100 μL of DMEM containing 10% WST-8 cell counting kit solution was added to each well. After 3 h of incubation, the absorbance was measured at 450 nm. Cell viability was calculated from the mean values for three wells. The preferential cytotoxicity was expressed as the concentration at which 50% of cells died preferentially in NDM (PC50).
Pancreatic cancer cells (MIA PaCa-2 cells) were kindly provided by Dr. Suresh Awale, an Associate Professor at Institute of Natural Medicine, University Toyama, Toyama, Japan. MIA PaCa-2 (RBRC-RCB2094), human pancreatic cancer cell lines were purchased from Riken BRC cell bank.

MIA PaCa-2 cells [2] = experiment: Morphological analysis, EB/AO double-staining; format: cell-based, human; conditions: 5 and 10 μM, NDM, 24 h, 24-well plate
Procedure: Thus, more detailed studies were performed on the major compound theonellapeptolide IId (4). Its effect on morphology status of MIA PaCa-2 cells under starvation condition was studied using a double-staining assay with EB (ethidium bromide) and AO (acridine orange). The membranes of dead or dying cells are penetrated by EB and staining in red while living cells are stained by AO, a cell-membrane-permeable dye emitting bright green fluorescence. Both AO and EB stains are known as DNA-intercalating agents. During cell death, EB and AO enter into the cell after the integrity of the cell membrane is disrupted, which facilitates the emission of orange fluorescence. […] In Figure 6A, treatment with 4 led to a dose-dependent increase in EB-stained cells emitting red fluorescence and showing drastic alteration of cell morphology. […] Real-time anti-austerity potential tracking of 4 showing morphological changes in MIA PaCa-2 cells under NDM was monitored using a Nikon sCMOS camera oxford instrument, Hamamatsu Photonics/Ti-E, for 24 h. […]
Figure 6 (A) Morphological changes of MIA PaCa-2 cells induced by 4 in a nutrient-deprived medium (NDM). […] The cells were stained with ethidium bromide (EB) and acridine orange (AO), and photographed in the fluorescence (red and green) under phase contrast modes using a Nikon sCMOS camera oxford instrument, Hamamatsu Photonics/Ti-E. (B) Structure of bioactive compound 4. […]

MIA PaCa-2 cells [3] = experiment: Time-lapse live imaging under NDM; format: cell-based, human; conditions: 10 μM in NDM, 37 °C, 5% CO2, imaged 24 h
Procedure: Thus, more detailed studies were performed on the major compound theonellapeptolide IId (4). Its effect on morphology status of MIA PaCa-2 cells under starvation condition was studied using a double-staining assay with EB (ethidium bromide) and AO (acridine orange). The membranes of dead or dying cells are penetrated by EB and staining in red while living cells are stained by AO, a cell-membrane-permeable dye emitting bright green fluorescence. Both AO and EB stains are known as DNA-intercalating agents. During cell death, EB and AO enter into the cell after the integrity of the cell membrane is disrupted, which facilitates the emission of orange fluorescence. In this study, MIA PaCa-2 cells treated with 5 and 10 μM of theonellapeptolide IId (4) were incubated in starvation condition (NDM) for 24 h, and stained with the EB and AO dyes. In Figure 6A, treatment with 4 led to a dose-dependent increase in EB-stained cells emitting red fluorescence and showing drastic alteration of cell morphology. […] To show the details of cell death in real time, live evidence of the anticancer potential of 4 was studied. A time-lapse live imaging anti-pancreatic cancer experiment under NDM condition was performed for the first time in a multi position in the dish, for monitoring the effect of 4. Moreover, MIA PaCa-2 cells were treated with 10 μM of compound 4 in NDM and incubated at 37 °C at 5% CO2. Real-time anti-austerity potential tracking of 4 showing morphological changes in MIA PaCa-2 cells under NDM was monitored using a Nikon sCMOS camera oxford instrument, Hamamatsu Photonics/Ti-E, for 24 h. Images were captured every 10 min by rotating at several fixed positions in the dish under the phase contrast mode on a CCD Camera imaging system for 24 h. Treatment with 4 under NDM inhibited cell mobility immediately within 60 min and altered morphology of MIA PaCa-2 cells after 4 h was observed, then cell death started after 8 h, finally in 12 h complete cell death was observed (Figure 7, Movies S1 and S2, Supporting Information). In the control, MIA PaCa-2 cells survived 24 h until the end of the experiment in the NDM (Figure 7). Thus, the result of this study provided the first simultaneous multi-site live evidence of the anti-pancreatic cancer therapeutic potential of the compound theonellapeptolide IId (4) against MIA PaCa-2 cells as marine-based anti-austerity agents. […]
Real-time anti-austerity potential tracking anti-pancreatic cancer activity of 4 by showing morphological changes in MIA PaCa-2 cells under NDM was monitored using a Nikon sCMOS camera Oxford instrument, Hamamatsu Photonics/Ti-E, for 24 h. […]

SMILES: CC[C@H](C)[C@H]1C(=O)NCCC(=O)N[C@H]([C@@H](C)CC)C(=O)N(C)[C@@H](C(C)C)C(=O)N[C@@H](C)C(=O)NCCC(=O)N[C@H](CC(C)C)C(=O)N(C)[C@H]([C@@H](C)CC)C(=O)O[C@H](C)[C@H](NC(=O)[C@@H](CC(C)C)N(C)C(=O)[C@@H](NC(=O)COC)C(C)C)C(=O)NCCC(=O)N[C@H](CC(C)C)C(=O)N1C [Compound 4, theonellapeptolide IId] (Methoxyacetyl-V[dNMeL]T[βAla][dL][NMeI][βAla][d(aIle)][NMeV]A[βAla][dL][dNMeaIle]; ester 3-C)
- IC50 ([1]; read-out: IC50 in DMEM, MIA PaCa-2, nutrient-rich DMEM, WST-8, absorbance 450 nm, mean of three wells): 38.2 µM
- IC50 ([1]; read-out: PC50 in NDM, MIA PaCa-2, preferential cytotoxicity, nutrient-deprived medium (NDM), WST-8, mean of three wells): 7.8 µM
- EB/AO staining of cells (MIA PaCa-2 cells [2]): exclusive red EB
- time after which altered cell morphology was observed (MIA PaCa-2 cells [3]): 4 h
- time after which cell death started (MIA PaCa-2 cells [3]): 8 h
- time to complete cell death (MIA PaCa-2 cells [3]): 12 h
- time to inhibition of cell mobility (MIA PaCa-2 cells [3]): ≤ 60 min
